Measurements reported in patent US9708314B2, “Heterocyclic amide compound” (NISSAN CHEMICAL INDUSTRIES, LTD., priority 2013, dated 2017).

Key:
Assay type in all cases: in vivo
Monochoria vaginalis = assay: Test Example 2: herbicidal activity, application during weed generation in submerged conditions; details: Eighteenth Table; application herbicide amount 320 g/ha
Outline: (§1)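 Paddy-type pot test: flooded soil, 4 cm depth, greenhouse 25–30 °C. Emulsion formulation diluted in water, applied to water surface at 1–2 leaf stage; rate expressed as g/ha. Read-out at 3 wk, 0–5 score.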

[1] = tested on: Echinochloa oryzacola Vasing.; assay: as above; details: Eighteenth Table; application herbicide amount 320 g/ha
Outline: as §1

Scirpus juncoides = assay: as above; details: Eighteenth Table; application herbicide amount 320 g/ha
Outline: as §1

Brassica campestris L. = assay: Test Example 4: effect on crop by application to foliage (diluvial soil, plastic box); details: Application herbicide amount 320 g/ha; effect on crop
Outline: (§2)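 Read-out is a 0–5 visual grade of herbicidal ratio (5: ≥90%, almost withered; 0: ≤5%) taken three weeks after treatment. Compound was applied as a diluted emulsion to stem and leaf parts of 14-day greenhouse-grown plants (25° C. to 30° C.) at rates expressed as g/ha.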

Glycine max = assay: as above; details: Application herbicide amount 320 g/ha; effect on crop
Outline: as §2

[2] = tested on: Beta vulgaris ssp. vulgaris; assay: as above; details: Application herbicide amount 320 g/ha; effect on crop
Outline: as §2

Triticum aestivum = assay: as above; details: Application herbicide amount 320 g/ha; effect on crop
Outline: as §2

[3] = tested on: directly sowed Oryza sativa; assay: as above; details: Application herbicide amount 320 g/ha; effect on crop
Outline: as §2

Zea mays = assay: as above; details: Application herbicide amount 320 g/ha; effect on crop
Outline: as §2

Setaria viridis = assay: Test Example 4: herbicidal effect by application to foliage (diluvial soil, plastic box); details: Application herbicide amount 320 g/ha
Outline: as §2

Alopecurus myosuroides = assay: as above; details: Application herbicide amount 320 g/ha
Outline: as §2

Lolium multiflorum Lam. = assay: as above; details: Application herbicide amount 320 g/ha
Outline: as §2

Chenopodium album = assay: as above; details: Application herbicide amount 320 g/ha
Outline: as §2

Veronica persica = assay: as above; details: Application herbicide amount 320 g/ha
Outline: as §2

[4] = tested on: Echinochloa crus-galli var. crus-galli; assay: as above; details: Application herbicide amount 320 g/ha
Outline: as §2

Abutilon theophrasti = assay: as above; details: Application herbicide amount 320 g/ha
Outline: as §2

Apera spica-venti. = assay: as above; details: Application herbicide amount 320 g/ha
Outline: as §2

Avena fatua = assay: as above; details: Application herbicide amount 320 g/ha
Outline: as §2

Compound | C (Monochoria vaginalis) herbicidal ratio grade (Monochoria vaginalis) | A (Echinochloa oryzicola Vasing.) herbicidal ratio grade [1] | B (Scirpus juncoides) herbicidal ratio grade (Scirpus juncoides) | g (Brassica campestris L.) | c (Glycine max) | f [2] | e (Triticum aestivum) | d [3] | b (Zea mays) | G (Setaria viridis) | J (Alopecurus myosuroides) | K (Lolium multiflorum Lam.) | O (Chenopodium album) | R (Veronica persica) | H [4] | M (Abutilon theophrasti) | L (Apera spica-venti.) | I (Avena fatua)
Cc1nnc(NC(=O)c2ccc(C(F)(F)C(F)(F)F)n3c(C(C)C)nnc23)o1 [1-066] | 2 (Herbicidal ratio of 20% or more and less than 40%) | 2 (Herbicidal ratio of 20% or more and less than 40%) | 3 (Herbicidal ratio of 40% or more and less than 70%) | 0 (Herbicidal ratio of 5% or less (almost no effect)) | 0 (Herbicidal ratio of 5% or less (almost no effect)) | 4 (Herbicidal ratio of 70% or more and less than 90%) | 0 (Herbicidal ratio of 5% or less (almost no effect)) | 3 (Herbicidal ratio of 40% or more and less than 70%) | 0 (Herbicidal ratio of 5% or less (almost no effect)) | 1 (Herbicidal ratio of 5% or more and less than 20%) | 0 (Herbicidal ratio of 5% or less (almost no effect)) | 0 (Herbicidal ratio of 5% or less (almost no effect)) | 5 (Herbicidal ratio of 90% or more (almost completely withered)) | 4 (Herbicidal ratio of 70% or more and less than 90%) | 4 (Herbicidal ratio of 70% or more and less than 90%) | 3 (Herbicidal ratio of 40% or more and less than 70%) | 0 (Herbicidal ratio of 5% or less (almost no effect)) | 1 (Herbicidal ratio of 5% or more and less than 20%)
Cc1nnc(NC(=O)c2ccc(C(F)(F)F)n3c(C=O)nnc23)o1 [1-068] | 2 (Herbicidal ratio of 20% or more and less than 40%) | 2 (Herbicidal ratio of 20% or more and less than 40%) | 2 (Herbicidal ratio of 20% or more and less than 40%) | 4 (Herbicidal ratio of 70% or more and less than 90%) | 0 (Herbicidal ratio of 5% or less (almost no effect)) | 4 (Herbicidal ratio of 70% or more and less than 90%) | 1 (Herbicidal ratio of 5% or more and less than 20%) | 3 (Herbicidal ratio of 40% or more and less than 70%) | 2 (Herbicidal ratio of 20% or more and less than 40%) | 4 (Herbicidal ratio of 70% or more and less than 90%) | 1 (Herbicidal ratio of 5% or more and less than 20%) | 1 (Herbicidal ratio of 5% or more and less than 20%) | 5 (Herbicidal ratio of 90% or more (almost completely withered)) | 4 (Herbicidal ratio of 70% or more and less than 90%) | 5 (Herbicidal ratio of 90% or more (almost completely withered)) | 3 (Herbicidal ratio of 40% or more and less than 70%) | 1 (Herbicidal ratio of 5% or more and less than 20%) | 1 (Herbicidal ratio of 5% or more and less than 20%)
Cc1nnc(NC(=O)c2ccc(C(F)(F)F)n3c(-c4cc(Cl)cc(Cl)c4)nnc23)o1 [1-071] | 4 (Herbicidal ratio of 70% or more and less than 90%) | 3 (Herbicidal ratio of 40% or more and less than 70%) | 5 (Herbicidal ratio of 90% or more (almost completely withered)) | 0 (Herbicidal ratio of 5% or less (almost no effect)) | 0 (Herbicidal ratio of 5% or less (almost no effect)) | 2 (Herbicidal ratio of 20% or more and less than 40%) | 0 (Herbicidal ratio of 5% or less (almost no effect)) | 0 (Herbicidal ratio of 5% or less (almost no effect)) | 0 (Herbicidal ratio of 5% or less (almost no effect)) | 0 (Herbicidal ratio of 5% or less (almost no effect)) | 0 (Herbicidal ratio of 5% or less (almost no effect)) | 0 (Herbicidal ratio of 5% or less (almost no effect)) | 5 (Herbicidal ratio of 90% or more (almost completely withered)) | 3 (Herbicidal ratio of 40% or more and less than 70%) | 0 (Herbicidal ratio of 5% or less (almost no effect)) | 3 (Herbicidal ratio of 40% or more and less than 70%) | 0 (Herbicidal ratio of 5% or less (almost no effect)) | 0 (Herbicidal ratio of 5% or less (almost no effect))
Cc1nnc(NC(=O)c2ccc(C(F)(F)F)n3c(N(C)C)nnc23)o1 [1-076] | 4 (Herbicidal ratio of 70% or more and less than 90%) | 2 (Herbicidal ratio of 20% or more and less than 40%) | 0 (Herbicidal ratio of 5% or less (almost no effect)) | 4 (Herbicidal ratio of 70% or more and less than 90%) | 3 (Herbicidal ratio of 40% or more and less than 70%) | 5 (Herbicidal ratio of 90% or more (almost completely withered)) | 3 (Herbicidal ratio of 40% or more and less than 70%) | 3 (Herbicidal ratio of 40% or more and less than 70%) | 0 (Herbicidal ratio of 5% or less (almost no effect)) | 5 (Herbicidal ratio of 90% or more (almost completely withered)) | 3 (Herbicidal ratio of 40% or more and less than 70%) | 3 (Herbicidal ratio of 40% or more and less than 70%) | 5 (Herbicidal ratio of 90% or more (almost completely withered)) | 4 (Herbicidal ratio of 70% or more and less than 90%) | 5 (Herbicidal ratio of 90% or more (almost completely withered)) | 4 (Herbicidal ratio of 70% or more and less than 90%) | 4 (Herbicidal ratio of 70% or more and less than 90%) | 3 (Herbicidal ratio of 40% or more and less than 70%)
CSCCc1nnc2c(C(=O)Nc3nnc(C)o3)ccc(C(F)(F)F)n12 [1-083] | 2 (Herbicidal ratio of 20% or more and less than 40%) | 2 (Herbicidal ratio of 20% or more and less than 40%) | 2 (Herbicidal ratio of 20% or more and less than 40%) | 4 (Herbicidal ratio of 70% or more and less than 90%) | 1 (Herbicidal ratio of 5% or more and less than 20%) | 5 (Herbicidal ratio of 90% or more (almost completely withered)) | 1 (Herbicidal ratio of 5% or more and less than 20%) | 4 (Herbicidal ratio of 70% or more and less than 90%) | 1 (Herbicidal ratio of 5% or more and less than 20%) | 5 (Herbicidal ratio of 90% or more (almost completely withered)) | 0 (Herbicidal ratio of 5% or less (almost no effect)) | 1 (Herbicidal ratio of 5% or more and less than 20%) | 5 (Herbicidal ratio of 90% or more (almost completely withered)) | 4 (Herbicidal ratio of 70% or more and less than 90%) | 5 (Herbicidal ratio of 90% or more (almost completely withered)) | 5 (Herbicidal ratio of 90% or more (almost completely withered)) | 0 (Herbicidal ratio of 5% or less (almost no effect)) | 3 (Herbicidal ratio of 40% or more and less than 70%)
